24 compounds from patent US20230391752A1, “PYRROLIDINE-3-CARBOXAMIDE DERIVATIVES AND RELATED USES” (Chulalongkorn University, priority 2020, published 2023) can be followed below.

The test system of the experiment is HBV. As to the kind of experiment: In vitro anti-HBV activity in HepG2.2.15 cell line (intracellular HBV DNA by qPCR at 1 μM). In kind it is cell-based. To be noted: Hepatitis B virus, 144 h; HepG2.2.15 cells, 1 μM compound, 6 days, intracellular HBV DNA as percentage compared to vehicle control (0.5% DMSO). Summed up: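 HepG2.2.15 cells given compound at 1 μM (0.5% DMSO final) for 3 days, then fresh compound-containing medium for 3 more days. After 6 days intracellular HBV DNA measured by qPCR. Expressed as % of 0.5% DMSO vehicle control and binned into letter ranges.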
(Quantitative PCR measures a nucleic acid by following its amplification.)

In turn, `O=C(Nc1ccc(F)c(Cl)c1)[C@H]1CCN(C(=O)c2ncc[nH]2)C1` [Example 32, (S)—N-(3-chloro-4-fluorophenyl)-1-(1H-imidazole-2-carbonyl)pyrrolidine-3-carboxamide] gave an activity at 1 µM of 80 to 90%. As to `Cc1cc(NC(=O)[C@H]2CCN(C(=O)c3ccc(-c4ccnnc4)[nH]3)C2)ccc1F` [Example 130, (S)—N-(4-fluoro-3-methylphenyl)-1-(5-(pyridazin-4-yl)-1H-pyrrole-2-carbonyl)pyrrolidine-3-carboxamide], the activity at 1 µM was < 45%.

As to `Cn1cc(-c2ccc(C(=O)N3CC[C@H](C(=O)Nc4cc(F)c(F)c(F)c4)C3)[nH]2)c2ccncc21` [Example 158, (S)-1-(5-(1-methyl-1H-pyrrolo[2,3-c]pyridin-3-yl)-1H-pyrrole-2-carbonyl)-N-(3,4,5-trifluorophenyl)pyrrolidine-3-carboxamide], the activity at 1 µM was in the range of 60 to 70%. As for `O=C(Nc1cc(F)c(F)c(F)c1)[C@H]1CCN(C(=O)c2ccc[nH]2)C1` [Example 48, (S)-1-(1H-pyrrole-2-carbonyl)-N-(3,4,5-trifluorophenyl)pyrrolidine-3-carboxamide], the activity at 1 µM lay in the range of 80 to 90%.

As for `Cc1ncccc1-c1ccc(C(=O)N2CC[C@H](C(=O)Nc3ccc(F)c(C#N)c3)C2)[nH]1` [Example 81, (S)—N-(3-cyano-4-fluorophenyl)-1-(5-(2-methylpyridin-3-yl)-1H-pyrrole-2-carbonyl) pyrrolidine-3-carboxamide], the activity at 1 µM was 45 to 60%.

Regarding `Cc1ncnc(C)c1-c1cccc2c(Cl)c(C(=O)N3CC[C@H](C(=O)Nc4ccc(F)c(C#N)c4)C3)[nH]c12` [Example 137, (S)-1-(3-chloro-7-(4,6-dimethylpyrimidin-5-yl)-1H-indole-2-carbonyl)-N-(3-cyano-4-fluorophenyl)pyrrolidine-3-carboxamide], the activity at 1 µM lay in the range of 45 to 60%. With `Cc1ncccc1Cc1ccc(C(=O)N2CC[C@H](C(=O)Nc3cc(F)c(F)c(F)c3)C2)[nH]1` [Example 145, (S)-1-(5-((2-methylpyridin-3-yl)methyl)-1H-pyrrole-2-carbonyl)-N-(3,4,5-trifluorophenyl)pyrrolidine-3-carboxamide] the figure was 70 to 80%; with `O=C(Nc1cc(F)c(F)c(F)c1)[C@H]1CCN(C(=O)c2ccc(-c3cccnn3)[nH]2)C1` [Example 96, (S)-1-(5-(pyridazin-3-yl)-1H-pyrrole-2-carbonyl)-N-(3,4,5-trifluorophenyl)pyrrolidine-3-carboxamide], 45 to 60%.

In turn, `O=C(Nc1cc(F)c(F)c(F)c1)[C@H]1CCN(C(=O)c2ccc(-c3cn[nH]c(=O)c3)[nH]2)C1` [Example 121, (S)-1-(5-(6-oxo-1,6-dihydropyridazin-4-yl)-1H-pyrrole-2-carbonyl)-N-(3,4,5-trifluorophenyl)pyrrolidine-3-carboxamide] registered an activity at 1 µM of 80 to 90%.

With `O=C(Nc1cc(F)c(F)c(F)c1)[C@H]1CCN(C(=O)c2ccc(Cc3cccnc3)[nH]2)C1` [Example 143, (S)-1-(5-(pyridin-3-ylmethyl)-1H-pyrrole-2-carbonyl)-N-(3,4,5-trifluorophenyl)pyrrolidine-3-carboxamide], the activity at 1 µM was > 90%. As for `C[C@H]1[C@@H](C(=O)Nc2cc(F)c(F)c(F)c2)CCN1C(=O)c1ccc(-c2cnccn2)[nH]1` [Example 84, (2S,3S)-2-methyl-1-(5-(pyrazin-2-yl)-1H-pyrrole-2-carbonyl)-N-(3,4,5-trifluorophenyl) pyrrolidine-3-carboxamide], the activity at 1 µM was > 90%. For `Cc1cc(NC(=O)[C@@H]2CN(C(=O)c3ccc(-c4c(C)n[nH]c4C)[nH]3)C[C@H]2C)ccc1F` [Example 169, (3S,4S)-1-(5-(3,5-dimethyl-1H-pyrazol-4-yl)-1H-pyrrole-2-carbonyl)-N-(4-fluoro-3-methylphenyl)-4-methylpyrrolidine-3-carboxamide], the activity at 1 µM was < 45%. Compound `O=C(Nc1cc(F)c(F)c(F)c1)[C@H]1CCN(C(=O)c2ccc(C3CC3)[nH]2)C1` [Example 73, (S)-1-(5-cyclopropyl-1H-pyrrole-2-carbonyl)-N-(3,4,5-trifluorophenyl)pyrrolidine-3-carboxamide] showed an activity at 1 µM of 45 to 60%.

`C[C@H]1[C@@H](C(=O)Nc2cc(F)c(F)c(F)c2)CCN1C(=O)c1cc2ncccc2[nH]1` [Example 64, (2S,3S)-2-methyl-1-(1H-pyrrolo[3,2-b]pyridine-2-carbonyl)-N-(3,4,5-trifluorophenyl) pyrrolidine-3-carboxamide]: the activity at 1 µM was in the range of 70 to 80%. Compound `O=C(Nc1cc(F)c(F)c(Br)c1)[C@H]1CCN(C(=O)c2cc3cnccc3[nH]2)C1` [Example 53, (S)—N-(3-bromo-4,5-difluorophenyl)-1-(1H-pyrrolo[3,2-c]pyridine-2-carbonyl)pyrrolidine-3-carboxamide] registered an activity at 1 µM of 70 to 80%. As to `O=Cc1c[nH]c2cc(C(=O)N3CC[C@H](C(=O)Nc4cc(F)c(F)c(F)c4)C3)ccc12` [Example 36, (S)-1-(3-formyl-1H-indole-6-carbonyl)-N-(3,4,5-trifluorophenyl)pyrrolidine-3-carboxamide], the activity at 1 µM lay in the range of 70 to 80%. Consider `Cc1cc(NC(=O)[C@H]2CCN(C(=O)c3nc4ccccc4[nH]3)C2)ccc1F` [Example 68, (S)-1-(1H-benzo[d]imidazole-2-carbonyl)-N-(4-fluoro-3-methylphenyl)pyrrolidine-3-carboxamide], for which the activity at 1 µM was < 45%. The compound `O=C(Nc1cc(F)c(F)c(F)c1)[C@H]1CCN(C(=O)c2cc3ncccc3[nH]2)C1` [Example 14, (S)-1-(1H-pyrrolo[3,2-b]pyridine-2-carbonyl)-N-(3,4,5-trifluorophenyl)pyrrolidine-3-carboxamide] gave an activity at 1 µM of 70 to 80%. `Cc1noc(C)c1-c1ccc(C(=O)N2CC[C@H](C(=O)Nc3cc(F)c(F)c(F)c3)C2)[nH]1` [Example 109, (S)-1-(5-(3,5-dimethylisoxazol-4-yl)-1H-pyrrole-2-carbonyl)-N-(3,4,5-trifluorophenyl) pyrrolidine-3-carboxamide] registered an activity at 1 µM of 60 to 70%. Regarding `N#Cc1cc(NC(=O)[C@H]2CCN(C(=O)c3ccc(-c4cccnc4)[nH]3)C2)ccc1F` [Example 75, (S)—N-(3-cyano-4-fluorophenyl)-1-(5-(pyridin-3-yl)-1H-pyrrole-2-carbonyl)pyrrolidine-3-carboxamide], the activity at 1 µM was 60 to 70%. Take `O=C(Nc1cc(F)c(F)c(F)c1)[C@H]1CCN(C(=O)c2cccc3cc[nH]c23)C1` [Example 6, (S)-1-(1H-indole-7-carbonyl)-N-(3,4,5-trifluorophenyl)pyrrolidine-3-carboxamide]: the activity at 1 µM is > 90%. To `Cc1ccc(C(=O)N2CC[C@H](C(=O)Nc3cc(F)c(F)c(Br)c3)C2)[nH]1` [Example 51, (S)—N-(3-bromo-4,5-difluorophenyl)-1-(5-methyl-1H-pyrrole-2-carbonyl)pyrrolidine-3-carboxamide] belongs 45 to 60%; to `O=C(Nc1cc(F)c(F)c(F)c1)[C@H]1CCN(C(=O)c2ccc(-c3cccnc3)[nH]2)C1` [Example 82], 45 to 60%; to `Cc1ccnnc1-c1ccc(C(=O)N2CC[C@H](C(=O)Nc3cc(F)c(F)c(F)c3)C2)[nH]1` [Example 98, (S)-1-(5-(4-methylpyridazin-3-yl)-1H-pyrrole-2-carbonyl)-N-(3,4,5-trifluorophenyl) pyrrolidine-3-carboxamide], 70 to 80%.
